# Active and inactive are the calls of the source. The rule behind the calls is not given here.
# What was measured:
# [1] = test system: LNCaP; test: Antiproliferative activity against human LNCAP cells after 72 hrs by Cell-Titer Glo assay; assay type: functional, cell-based
# [2] = test system: LNCaP; test: Potency index, ratio of enzalutamide IC50 to compound IC50 for antiproliferative activity against human LNCAP cells; assay type: functional
# [3] = test system: CWR22R; test: Potency index, ratio of enzalutamide IC50 to compound IC50 for antiproliferative activity against human 22Rv1 cells; assay type: functional
# [4] = test system: CWR22R; test: Anticlonogenic activity against human 22Rv1 cells after 14 days by crystal violet staining based assay; assay type: functional, cell-based
# [5] = test system: LNCaP C4-2B; test: Anticlonogenic activity against human C4-2B cells after 14 days by crystal violet staining based assay; assay type: functional, cell-based
# [6] = test system: CWR22R; test: Anticlonogenic activity against human 22Rv1 cells at 4 uM after 14 days by crystal violet staining based assay relative to control; assay type: functional
# [7] = test system: LNCaP C4-2B; test: Anticlonogenic activity against human C4-2B cells at 4 uM after 14 days by crystal violet staining based assay relative to control; assay type: functional
# [8] = test system: CWR22R; test: cells; details: Homo sapiens, 22Rv1, 72 h
# Description: (§1) Antiproliferative activity against human 22Rv1 cells after 72 hrs by Cell-Titer Glo assay
# [9] = molecular target: T1, CREB-binding protein (Homo sapiens, UniProt Q92793); test: Inhibition of biotinylated-H4KAc4 binding to human His6-tagged CBP (R1081 to G1197 residues) expressed in Escherichia coli BL21(DE3) after 2.5 hrs by luminescence-based AlphaScreen assay
# [10] = molecular target: T2, Histone acetyltransferase p300 (Homo sapiens, UniProt Q09472); test: Inhibition of biotinylated-H4KAc4 binding to human His6-tagged EP300 (A1040 to G1161 residues) expressed in Escherichia coli BL21(DE3) after 2.5 hrs by luminescence-based AlphaScreen assay
# T2 sequence (Q09472 whole entry, the tested form may be a part): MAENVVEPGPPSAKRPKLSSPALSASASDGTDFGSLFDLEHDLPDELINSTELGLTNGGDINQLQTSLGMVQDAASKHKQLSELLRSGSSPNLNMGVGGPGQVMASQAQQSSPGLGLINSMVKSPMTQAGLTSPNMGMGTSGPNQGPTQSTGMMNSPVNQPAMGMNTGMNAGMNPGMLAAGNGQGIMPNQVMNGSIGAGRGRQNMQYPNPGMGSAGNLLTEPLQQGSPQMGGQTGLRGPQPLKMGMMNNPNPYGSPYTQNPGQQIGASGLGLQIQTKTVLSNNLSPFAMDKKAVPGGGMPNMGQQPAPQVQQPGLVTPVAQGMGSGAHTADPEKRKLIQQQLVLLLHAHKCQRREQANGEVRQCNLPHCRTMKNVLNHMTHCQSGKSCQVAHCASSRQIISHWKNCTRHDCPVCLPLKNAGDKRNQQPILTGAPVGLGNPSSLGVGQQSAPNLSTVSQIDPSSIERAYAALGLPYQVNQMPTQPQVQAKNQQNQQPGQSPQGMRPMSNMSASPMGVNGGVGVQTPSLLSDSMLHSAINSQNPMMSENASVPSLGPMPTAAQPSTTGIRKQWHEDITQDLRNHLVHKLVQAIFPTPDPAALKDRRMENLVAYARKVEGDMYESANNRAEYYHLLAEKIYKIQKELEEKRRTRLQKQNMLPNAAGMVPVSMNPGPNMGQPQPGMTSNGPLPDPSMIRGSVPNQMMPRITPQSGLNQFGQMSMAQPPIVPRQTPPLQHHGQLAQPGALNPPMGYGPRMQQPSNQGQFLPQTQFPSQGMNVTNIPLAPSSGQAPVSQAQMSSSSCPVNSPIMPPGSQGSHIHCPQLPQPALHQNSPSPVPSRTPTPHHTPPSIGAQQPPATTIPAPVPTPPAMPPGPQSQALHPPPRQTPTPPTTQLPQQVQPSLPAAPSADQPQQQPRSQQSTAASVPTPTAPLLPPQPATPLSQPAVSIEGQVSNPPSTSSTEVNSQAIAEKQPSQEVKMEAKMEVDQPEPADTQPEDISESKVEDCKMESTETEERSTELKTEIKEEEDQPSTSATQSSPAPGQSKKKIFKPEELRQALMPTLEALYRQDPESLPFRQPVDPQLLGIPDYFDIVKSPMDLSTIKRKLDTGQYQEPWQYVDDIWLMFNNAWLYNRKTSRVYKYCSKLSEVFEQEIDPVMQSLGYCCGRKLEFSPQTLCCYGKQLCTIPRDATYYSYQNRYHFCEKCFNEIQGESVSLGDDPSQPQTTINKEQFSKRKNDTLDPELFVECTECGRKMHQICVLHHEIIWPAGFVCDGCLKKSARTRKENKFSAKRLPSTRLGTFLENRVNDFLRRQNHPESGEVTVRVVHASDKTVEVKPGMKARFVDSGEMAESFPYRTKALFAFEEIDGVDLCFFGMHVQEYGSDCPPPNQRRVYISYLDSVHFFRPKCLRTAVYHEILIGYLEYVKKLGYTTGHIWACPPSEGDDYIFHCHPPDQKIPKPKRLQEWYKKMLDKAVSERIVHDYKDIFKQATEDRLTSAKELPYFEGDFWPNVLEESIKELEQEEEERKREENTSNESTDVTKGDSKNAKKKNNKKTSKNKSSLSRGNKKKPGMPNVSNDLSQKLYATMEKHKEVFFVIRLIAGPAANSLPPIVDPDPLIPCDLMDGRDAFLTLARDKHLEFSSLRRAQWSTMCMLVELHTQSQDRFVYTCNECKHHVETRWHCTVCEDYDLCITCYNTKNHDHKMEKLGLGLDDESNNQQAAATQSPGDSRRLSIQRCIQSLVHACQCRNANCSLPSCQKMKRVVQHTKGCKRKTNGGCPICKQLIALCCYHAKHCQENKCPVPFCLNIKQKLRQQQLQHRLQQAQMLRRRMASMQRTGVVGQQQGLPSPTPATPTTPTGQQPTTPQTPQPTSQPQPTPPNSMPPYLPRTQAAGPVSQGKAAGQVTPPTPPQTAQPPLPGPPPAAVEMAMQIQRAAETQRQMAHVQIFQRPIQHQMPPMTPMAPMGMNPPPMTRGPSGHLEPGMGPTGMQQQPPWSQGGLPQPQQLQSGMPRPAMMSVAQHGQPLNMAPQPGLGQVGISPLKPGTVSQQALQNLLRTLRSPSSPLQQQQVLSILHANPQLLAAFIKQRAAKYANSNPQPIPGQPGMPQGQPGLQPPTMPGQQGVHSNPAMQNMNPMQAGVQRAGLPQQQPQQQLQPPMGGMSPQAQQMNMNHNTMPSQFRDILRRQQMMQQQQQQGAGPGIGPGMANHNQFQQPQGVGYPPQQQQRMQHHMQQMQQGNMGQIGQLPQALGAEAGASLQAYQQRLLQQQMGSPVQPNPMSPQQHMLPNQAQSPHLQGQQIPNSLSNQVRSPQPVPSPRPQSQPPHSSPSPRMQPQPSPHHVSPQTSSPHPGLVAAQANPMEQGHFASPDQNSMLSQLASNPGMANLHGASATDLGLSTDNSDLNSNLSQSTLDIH
# [11] = molecular target: T3, Bromodomain-containing protein 4 (Homo sapiens, UniProt O60885); test: Inhibition of biotinylated-H4KAc4 binding to human His6-tagged BRD4 bromodomain-1 (N44 to E168 residues) expressed in Escherichia coli BL21(DE3) after 2.5 hrs by luminescence-based AlphaScreen assay
# [12] = molecular target: T4, Transcription initiation factor TFIID subunit 1 (Homo sapiens, UniProt P21675); test: Inhibition of biotinylated-H4KAc4 binding to human His6-tagged TAF-1 (R1377 to D1503 residues) expressed in Escherichia coli BL21(DE3) after 2.5 hrs by luminescence-based AlphaScreen assay
# [13] = molecular target: T5, Bromodomain adjacent to zinc finger domain protein 2B (Homo sapiens, UniProt Q9UIF8); test: Inhibition of biotinylated-H4KAc4 binding to human His6-tagged BAZ2B (S1858 to S1972 residues) expressed in Escherichia coli BL21(DE3) after 2.5 hrs by luminescence-based AlphaScreen assay
# T5 sequence (Q9UIF8 whole entry, the tested form may be a part): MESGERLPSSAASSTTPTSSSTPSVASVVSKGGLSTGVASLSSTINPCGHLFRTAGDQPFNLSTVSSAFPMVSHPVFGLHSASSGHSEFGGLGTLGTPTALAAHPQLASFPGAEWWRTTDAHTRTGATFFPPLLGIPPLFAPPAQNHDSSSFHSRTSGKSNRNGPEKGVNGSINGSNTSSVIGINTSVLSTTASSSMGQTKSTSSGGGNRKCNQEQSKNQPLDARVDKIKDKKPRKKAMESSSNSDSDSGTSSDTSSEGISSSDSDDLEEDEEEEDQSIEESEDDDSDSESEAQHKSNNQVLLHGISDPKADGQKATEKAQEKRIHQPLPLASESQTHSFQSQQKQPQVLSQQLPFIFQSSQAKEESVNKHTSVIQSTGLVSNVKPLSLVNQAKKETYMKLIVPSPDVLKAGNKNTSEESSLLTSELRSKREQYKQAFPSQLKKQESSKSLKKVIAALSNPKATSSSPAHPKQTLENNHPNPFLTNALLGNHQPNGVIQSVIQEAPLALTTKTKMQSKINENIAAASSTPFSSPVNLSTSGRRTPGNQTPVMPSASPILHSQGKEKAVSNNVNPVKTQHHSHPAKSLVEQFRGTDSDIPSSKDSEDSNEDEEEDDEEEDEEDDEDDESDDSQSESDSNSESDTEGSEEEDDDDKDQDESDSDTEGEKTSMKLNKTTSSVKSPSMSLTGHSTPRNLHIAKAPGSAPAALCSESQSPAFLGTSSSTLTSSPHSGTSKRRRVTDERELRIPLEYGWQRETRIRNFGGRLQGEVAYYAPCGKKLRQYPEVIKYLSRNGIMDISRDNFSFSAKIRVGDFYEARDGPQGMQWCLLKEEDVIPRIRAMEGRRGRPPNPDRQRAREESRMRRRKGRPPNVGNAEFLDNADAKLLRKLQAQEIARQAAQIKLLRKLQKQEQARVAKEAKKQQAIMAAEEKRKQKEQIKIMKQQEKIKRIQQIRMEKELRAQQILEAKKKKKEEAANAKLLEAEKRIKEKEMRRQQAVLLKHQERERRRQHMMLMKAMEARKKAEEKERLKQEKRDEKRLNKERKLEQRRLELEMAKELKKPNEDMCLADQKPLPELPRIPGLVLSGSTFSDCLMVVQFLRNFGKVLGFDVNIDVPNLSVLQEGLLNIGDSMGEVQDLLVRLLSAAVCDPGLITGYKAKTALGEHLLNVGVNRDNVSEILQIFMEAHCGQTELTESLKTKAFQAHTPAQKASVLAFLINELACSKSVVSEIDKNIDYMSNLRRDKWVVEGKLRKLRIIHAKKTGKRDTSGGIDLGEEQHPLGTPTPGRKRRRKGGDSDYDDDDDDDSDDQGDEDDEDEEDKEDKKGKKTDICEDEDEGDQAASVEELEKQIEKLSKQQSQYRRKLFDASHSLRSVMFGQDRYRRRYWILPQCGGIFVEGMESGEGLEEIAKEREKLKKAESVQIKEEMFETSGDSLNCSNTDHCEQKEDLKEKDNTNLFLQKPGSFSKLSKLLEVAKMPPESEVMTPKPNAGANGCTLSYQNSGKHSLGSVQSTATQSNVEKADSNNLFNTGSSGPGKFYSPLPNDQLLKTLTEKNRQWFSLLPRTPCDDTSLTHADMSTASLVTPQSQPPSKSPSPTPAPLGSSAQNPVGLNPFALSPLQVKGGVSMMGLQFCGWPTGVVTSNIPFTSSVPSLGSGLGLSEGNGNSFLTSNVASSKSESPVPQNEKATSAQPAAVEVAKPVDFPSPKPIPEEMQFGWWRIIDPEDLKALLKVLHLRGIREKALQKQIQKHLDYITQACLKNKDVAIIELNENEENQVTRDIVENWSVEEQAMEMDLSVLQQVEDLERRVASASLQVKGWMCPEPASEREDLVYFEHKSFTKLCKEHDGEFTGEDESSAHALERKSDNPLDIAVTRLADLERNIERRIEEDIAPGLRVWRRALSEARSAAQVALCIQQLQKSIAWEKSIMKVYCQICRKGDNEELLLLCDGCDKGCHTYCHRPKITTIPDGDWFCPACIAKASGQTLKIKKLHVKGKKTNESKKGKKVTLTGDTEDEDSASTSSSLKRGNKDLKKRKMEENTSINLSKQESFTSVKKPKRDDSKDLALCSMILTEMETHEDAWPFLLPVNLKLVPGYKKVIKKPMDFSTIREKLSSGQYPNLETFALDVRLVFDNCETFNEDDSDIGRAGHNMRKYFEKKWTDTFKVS
# [14] = molecular target: T6, Bromodomain-containing protein 9 (Homo sapiens, UniProt Q9H8M2); test: Inhibition of biotinylated-H4KAc4 binding to human His6-tagged BRD9 (L14 to Q134 residues) expressed in Escherichia coli BL21(DE3) after 2.5 hrs by luminescence-based AlphaScreen assay
# T6 sequence (Q9H8M2 whole entry): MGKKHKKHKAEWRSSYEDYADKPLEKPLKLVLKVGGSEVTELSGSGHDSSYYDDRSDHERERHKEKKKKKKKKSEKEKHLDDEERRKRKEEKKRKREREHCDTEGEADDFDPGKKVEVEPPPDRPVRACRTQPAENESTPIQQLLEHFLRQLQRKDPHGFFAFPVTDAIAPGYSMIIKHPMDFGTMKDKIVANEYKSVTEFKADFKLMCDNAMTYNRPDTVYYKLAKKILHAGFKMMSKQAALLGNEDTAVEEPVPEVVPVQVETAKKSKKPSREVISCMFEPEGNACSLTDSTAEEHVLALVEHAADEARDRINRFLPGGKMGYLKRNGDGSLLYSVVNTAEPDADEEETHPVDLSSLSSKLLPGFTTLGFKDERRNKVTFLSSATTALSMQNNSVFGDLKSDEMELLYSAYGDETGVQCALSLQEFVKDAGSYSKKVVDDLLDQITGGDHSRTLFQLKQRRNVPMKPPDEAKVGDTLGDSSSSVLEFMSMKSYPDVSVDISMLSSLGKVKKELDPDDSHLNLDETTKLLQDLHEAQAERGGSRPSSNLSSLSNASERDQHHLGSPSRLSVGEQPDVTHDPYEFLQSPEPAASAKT
# [15] = molecular target: T7, Transcription intermediary factor 1-alpha (Homo sapiens, UniProt O15164); test: Inhibition of biotinylated-H4KAc4 binding to human His6-tagged TIF-1 (G896 to E1014 residues) expressed in Escherichia coli BL21(DE3) after 2.5 hrs by luminescence-based AlphaScreen assay
# T7 sequence (O15164 whole entry): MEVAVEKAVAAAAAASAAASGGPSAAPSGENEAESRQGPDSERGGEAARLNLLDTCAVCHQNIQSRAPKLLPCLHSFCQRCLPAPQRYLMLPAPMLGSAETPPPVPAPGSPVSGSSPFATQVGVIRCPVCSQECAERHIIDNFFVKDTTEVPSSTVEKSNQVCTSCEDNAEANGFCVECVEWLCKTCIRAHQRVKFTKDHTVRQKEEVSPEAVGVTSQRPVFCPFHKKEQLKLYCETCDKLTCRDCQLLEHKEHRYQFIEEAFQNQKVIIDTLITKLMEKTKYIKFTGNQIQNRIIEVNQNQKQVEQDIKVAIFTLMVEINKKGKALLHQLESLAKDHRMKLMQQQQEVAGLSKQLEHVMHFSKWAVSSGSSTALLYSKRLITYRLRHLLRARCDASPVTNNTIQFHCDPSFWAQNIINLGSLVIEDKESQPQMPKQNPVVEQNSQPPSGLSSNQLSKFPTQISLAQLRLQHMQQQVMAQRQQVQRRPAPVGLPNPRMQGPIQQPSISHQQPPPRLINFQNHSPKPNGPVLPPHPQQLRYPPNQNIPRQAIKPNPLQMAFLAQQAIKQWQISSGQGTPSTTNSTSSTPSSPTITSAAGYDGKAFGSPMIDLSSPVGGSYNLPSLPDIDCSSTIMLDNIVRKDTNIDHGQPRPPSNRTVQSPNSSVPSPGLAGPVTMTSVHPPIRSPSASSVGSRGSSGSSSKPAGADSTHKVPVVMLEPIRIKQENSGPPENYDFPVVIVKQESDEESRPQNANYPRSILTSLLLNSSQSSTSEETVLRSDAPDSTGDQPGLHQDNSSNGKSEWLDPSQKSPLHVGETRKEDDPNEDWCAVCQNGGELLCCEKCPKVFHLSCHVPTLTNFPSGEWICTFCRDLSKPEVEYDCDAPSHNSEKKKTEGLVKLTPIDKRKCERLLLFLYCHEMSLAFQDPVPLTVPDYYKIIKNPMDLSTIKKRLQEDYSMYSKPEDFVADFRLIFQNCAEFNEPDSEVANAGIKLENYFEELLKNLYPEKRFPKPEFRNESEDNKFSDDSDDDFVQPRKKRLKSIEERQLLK
# [16] = molecular target: T8, Histone acetyltransferase KAT2B (Homo sapiens, UniProt Q92831); test: Inhibition of biotinylated-H4KAc4 binding to human His6-tagged PCAF (G715 to D831 residues) expressed in Escherichia coli BL21(DE3) after 2.5 hrs by luminescence-based AlphaScreen assay
# [17] = molecular target: T1, CREB-binding protein; test: Binding affinity to human His6-tagged CBP (R1081 to G1197 residues) expressed in Escherichia coli BL21(DE3) assessed as change in melting temperature at 200 uM after 30 mins by SYPRO orange dye based fluorescence assay
# [18] = molecular target: T2, Histone acetyltransferase p300; test: Binding affinity to human His6-tagged EP300 (A1040 to G1161 residues) expressed in Escherichia coli BL21(DE3) assessed as change in melting temperature at 200 uM after 30 mins by SYPRO orange dye based fluorescence assay
# [19] = molecular target: T8, Histone acetyltransferase KAT2B; test: Binding affinity to human His6-tagged PCAF (G715 to D831 residues) expressed in Escherichia coli BL21(DE3) assessed as change in melting temperature at 200 uM after 30 mins by SYPRO orange dye based fluorescence assay
# [20] = molecular target: Bromodomain-containing protein 9 (Homo sapiens) (UniProt Q9H8M2); test: Binding affinity to human His6-tagged BRD9 (L14 to Q134 residues) expressed in Escherichia coli BL21(DE3) assessed as change in melting temperature at 200 uM after 30 mins by SYPRO orange dye based fluorescence assay
# [21] = molecular target: T4, Transcription initiation factor TFIID subunit 1; test: Binding affinity to human His6-tagged TAF-1 (R1377 to D1503 residues) expressed in Escherichia coli BL21(DE3) assessed as change in melting temperature at 200 uM after 30 mins by SYPRO orange dye based fluorescence assay
# [22] = molecular target: T5, Bromodomain adjacent to zinc finger domain protein 2B; test: Binding affinity to human His6-tagged BAZ2B (S1858 to S1972 residues) expressed in Escherichia coli BL21(DE3) assessed as change in melting temperature at 200 uM after 30 mins by SYPRO orange dye based fluorescence assay
# [23] = molecular target: Transcription intermediary factor 1-alpha (Homo sapiens) (UniProt O15164); test: Binding affinity to human His6-tagged TIF-1 (G896 to E1014 residues) expressed in Escherichia coli BL21(DE3) assessed as change in melting temperature at 200 uM after 30 mins by SYPRO orange dye based fluorescence assay
# [24] = molecular target: T3, Bromodomain-containing protein 4; test: Binding affinity to human His6-tagged BRD4 bromodomain-1 (N44 to E168 residues) expressed in Escherichia coli BL21(DE3) assessed as change in melting temperature at 200 uM after 30 mins by SYPRO orange dye based fluorescence assay
# [25] = test system: CWR22R
# Description: as §1
# [26] = Homo sapiens, LNCaP, 72 h, read-out: IC50
Structure (SMILES),"IC50 [1, 26]",Ratio IC50 [2],Ratio IC50 [3],Activity [4],Activity [5],IC50 [8],IC50 [9],IC50 [10],IC50 [11],IC50 [12],IC50 [13],IC50 [14],IC50 [15],IC50 [16],further results
COc1ccc2c(c1)c(C(=O)Nc1cc(C(=O)OC(C)(C)C)cc(-c3cnn(C)c3)c1)cn2C(C)=O,1.28 µM,17,17,Dose-dependent effect,Dose-dependent effect,2.22 µM,,,,,,,,,Activity [6]: <10%; Activity [7]: <10%
COc1ccc2c(c1)c(C(=O)Nc1cc(C(=O)O)cc(-c3cnn(C)c3)c1F)cn2C(C)=O,,,,inactive,inactive,,0.037 µM,0.049 µM,> 20 µM,> 20 µM,> 20 µM,> 20 µM,> 20 µM,> 20 µM,ΔTm [17]: 8.7 °C; ΔTm [18]: 7.2 °C; ΔTm [19]: -0.3 °C; ΔTm [20]: 0.9 °C; ΔTm [21]: 0.6 °C; ΔTm [22]: 0.3 °C; ΔTm [23]: 0 °C; ΔTm [24]: 1.2 °C; IC50 ([1]; lncap): Not Active; IC50 [25]: Not Active
COc1ccc2c(c1)c(C(=O)Nc1cc(C(=O)OC(C)(C)C)cc(-c3ccco3)c1)cn2C(C)=O,1.76 µM,17,17,,,4.31 µM,,,,,,,,,
CC(=O)n1cc(C(=O)Nc2cccc(C(=O)O)c2)c2ccccc21,,,,,,,1.69 µM,5.55 µM,> 20 µM,> 20 µM,> 20 µM,> 20 µM,> 20 µM,> 20 µM,
CC(=O)n1cc(C(=O)Nc2cc(C(=O)O)ccc2F)c2ccccc21,,,,,,,0.77 µM,4.45 µM,> 20 µM,> 20 µM,> 20 µM,> 20 µM,> 20 µM,> 20 µM,
